PubChem BioAssay (NCI)
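Five compound concentrations were applied to cells in 96-well plates for 48 hours; endpoints were derived by simple linear interpolation of the resulting dose-response curve. At the GI50, growth is halved. TGI denotes the concentration required for complete inhibition of growth.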

Legend:
Experiment in all cases: NCI tumour cell line growth inhibition, 48 h
786-0 renal = test system: 786-0 renal
MDA-MB-435 = test system: MDA-MB-435
SK-MEL-2 melanoma = test system: SK-MEL-2 melanoma
TK-10 renal = test system: TK-10 renal
COLO 205 colon = test system: COLO 205 colon
SK-MEL-28 melanoma = test system: SK-MEL-28 melanoma
OVCAR-4 ovarian = test system: OVCAR-4 ovarian
HT29 colon = test system: HT29 colon
LOX IMVI melanoma = test system: LOX IMVI melanoma
A549 NSCLC = test system: A549 NSCLC
SF-295 CNS = test system: SF-295 CNS
HL-60(TB) leukemia = test system: HL-60(TB) leukemia
RPMI-8226 leukemia = test system: RPMI-8226 leukemia
KM12 colon = test system: KM12 colon
T-47D breast = test system: T-47D breast
SF-268 CNS = test system: SF-268 CNS
NCI/ADR-RES ovarian = test system: NCI/ADR-RES ovarian
HOP-92 NSCLC = test system: HOP-92 NSCLC
OVCAR-5 ovarian = test system: OVCAR-5 ovarian
HCT-116 colon = test system: HCT-116 colon
CAKI-1 renal = test system: CAKI-1 renal
UACC-257 melanoma = test system: UACC-257 melanoma
MDA-MB-231 breast = test system: MDA-MB-231 breast
OVCAR-3 ovarian = test system: OVCAR-3 ovarian
NCI-H23 lung = test system: NCI-H23 lung
NCI-H460 lung = test system: NCI-H460 lung
SK-OV-3 ovarian = test system: SK-OV-3 ovarian
SF-539 CNS = test system: SF-539 CNS
CCRF-CEM leukemia = test system: CCRF-CEM leukemia
PC-3 prostate = test system: PC-3 prostate
NCI-H226 lung = test system: NCI-H226 lung
HCC-2998 colon = test system: HCC-2998 colon
HCT-15 colon = test system: HCT-15 colon
K-562 leukemia = test system: K-562 leukemia
UO-31 renal = test system: UO-31 renal
U251 CNS = test system: U251 CNS
A498 renal = test system: A498 renal
MCF7 breast = test system: MCF7 breast
MALME-3M melanoma = test system: MALME-3M melanoma
DU-145 prostate = test system: DU-145 prostate
EKVX NSCLC = test system: EKVX NSCLC
SK-MEL-5 melanoma = test system: SK-MEL-5 melanoma
SR leukemia = test system: SR leukemia
IGROV1 ovarian = test system: IGROV1 ovarian
MOLT-4 leukemia = test system: MOLT-4 leukemia
RXF 393 renal = test system: RXF 393 renal
HS 578T breast = test system: HS 578T breast
SNB-19 CNS = test system: SNB-19 CNS
BT-549 breast = test system: BT-549 breast
SW-620 colon = test system: SW-620 colon
NCI-H522 lung = test system: NCI-H522 lung
ACHN renal = test system: ACHN renal
SN12C renal = test system: SN12C renal
OVCAR-8 ovarian = test system: OVCAR-8 ovarian
UACC-62 melanoma = test system: UACC-62 melanoma

Structure (SMILES): CCCCC[C@H](O)/C=C/[C@@H]1[C@@H](C/C=C\CCCC(=O)O)[C@@H](O)C[C@H]1O
- GI50 (786-0 renal): > 100 µM
- TGI (786-0 renal): > 100 µM
- GI50 (MDA-MB-435): > 100 µM
- TGI (MDA-MB-435): > 100 µM
- GI50 (SK-MEL-2 melanoma): > 100 µM
- TGI (SK-MEL-2 melanoma): > 100 µM
- GI50 (TK-10 renal): > 100 µM
- TGI (TK-10 renal): > 100 µM
- GI50 (COLO 205 colon): > 100 µM
- TGI (COLO 205 colon): > 100 µM
- GI50 (SK-MEL-28 melanoma): > 100 µM
- TGI (SK-MEL-28 melanoma): > 100 µM
- GI50 (OVCAR-4 ovarian): > 100 µM
- TGI (OVCAR-4 ovarian): > 100 µM
- GI50 (HT29 colon): > 100 µM
- TGI (HT29 colon): > 100 µM
- GI50 (LOX IMVI melanoma): > 100 µM
- TGI (LOX IMVI melanoma): > 100 µM
- GI50 (A549 NSCLC): > 100 µM
- TGI (A549 NSCLC): > 100 µM
- GI50 (SF-295 CNS): > 100 µM
- TGI (SF-295 CNS): > 100 µM
- GI50 (HL-60(TB) leukemia): > 100 µM
- TGI (HL-60(TB) leukemia): > 100 µM
- GI50 (RPMI-8226 leukemia): > 100 µM
- TGI (RPMI-8226 leukemia): > 100 µM
- GI50 (KM12 colon): > 100 µM
- TGI (KM12 colon): > 100 µM
- GI50 (T-47D breast): > 100 µM
- TGI (T-47D breast): > 100 µM
- GI50 (SF-268 CNS): > 100 µM
- TGI (SF-268 CNS): > 100 µM
- GI50 (NCI/ADR-RES ovarian): > 100 µM
- TGI (NCI/ADR-RES ovarian): > 100 µM
- GI50 (HOP-92 NSCLC): > 100 µM
- TGI (HOP-92 NSCLC): > 100 µM
- GI50 (OVCAR-5 ovarian): > 100 µM
- TGI (OVCAR-5 ovarian): > 100 µM
- GI50 (HCT-116 colon): > 100 µM
- TGI (HCT-116 colon): > 100 µM
- GI50 (CAKI-1 renal): > 100 µM
- TGI (CAKI-1 renal): > 100 µM
- GI50 (UACC-257 melanoma): > 100 µM
- TGI (UACC-257 melanoma): > 100 µM
- GI50 (MDA-MB-231 breast): > 100 µM
- TGI (MDA-MB-231 breast): > 100 µM
- GI50 (OVCAR-3 ovarian): > 100 µM
- TGI (OVCAR-3 ovarian): > 100 µM
- GI50 (NCI-H23 lung): > 100 µM
- TGI (NCI-H23 lung): > 100 µM
- GI50 (NCI-H460 lung): > 100 µM
- TGI (NCI-H460 lung): > 100 µM
- GI50 (SK-OV-3 ovarian): > 100 µM
- TGI (SK-OV-3 ovarian): > 100 µM
- GI50 (SF-539 CNS): > 100 µM
- TGI (SF-539 CNS): > 100 µM
- GI50 (CCRF-CEM leukemia): > 100 µM
- TGI (CCRF-CEM leukemia): > 100 µM
- GI50 (PC-3 prostate): > 100 µM
- TGI (PC-3 prostate): > 100 µM
- GI50 (NCI-H226 lung): > 100 µM
- TGI (NCI-H226 lung): > 100 µM
- GI50 (HCC-2998 colon): > 100 µM
- TGI (HCC-2998 colon): > 100 µM
- GI50 (HCT-15 colon): > 100 µM
- TGI (HCT-15 colon): > 100 µM
- GI50 (K-562 leukemia): > 100 µM
- TGI (K-562 leukemia): > 100 µM
- GI50 (UO-31 renal): > 100 µM
- TGI (UO-31 renal): > 100 µM
- GI50 (U251 CNS): > 100 µM
- TGI (U251 CNS): > 100 µM
- GI50 (A498 renal): > 100 µM
- TGI (A498 renal): > 100 µM
- GI50 (MCF7 breast): > 100 µM
- TGI (MCF7 breast): > 100 µM
- GI50 (MALME-3M melanoma): > 100 µM
- TGI (MALME-3M melanoma): > 100 µM
- GI50 (DU-145 prostate): > 100 µM
- TGI (DU-145 prostate): > 100 µM
- GI50 (EKVX NSCLC): > 100 µM
- TGI (EKVX NSCLC): > 100 µM
- GI50 (SK-MEL-5 melanoma): > 100 µM
- TGI (SK-MEL-5 melanoma): > 100 µM
- GI50 (SR leukemia): > 100 µM
- TGI (SR leukemia): > 100 µM
- GI50 (IGROV1 ovarian): > 100 µM
- TGI (IGROV1 ovarian): > 100 µM
- GI50 (MOLT-4 leukemia): > 100 µM
- TGI (MOLT-4 leukemia): > 100 µM
- GI50 (RXF 393 renal): > 100 µM
- TGI (RXF 393 renal): > 100 µM
- GI50 (HS 578T breast): > 100 µM
- TGI (HS 578T breast): > 100 µM
- GI50 (SNB-19 CNS): > 100 µM
- TGI (SNB-19 CNS): > 100 µM
- GI50 (BT-549 breast): > 100 µM
- TGI (BT-549 breast): > 100 µM
- GI50 (SW-620 colon): > 100 µM
- TGI (SW-620 colon): > 100 µM
- GI50 (NCI-H522 lung): > 100 µM
- TGI (NCI-H522 lung): > 100 µM
- GI50 (ACHN renal): > 100 µM
- TGI (ACHN renal): > 100 µM
- GI50 (SN12C renal): > 100 µM
- TGI (SN12C renal): > 100 µM
- GI50 (OVCAR-8 ovarian): > 100 µM
- TGI (OVCAR-8 ovarian): > 100 µM
- GI50 (UACC-62 melanoma): > 100 µM
- TGI (UACC-62 melanoma): > 100 µM
